Like-named read-outs stand apart in the source and are kept apart here.
Experiments:
[1] = tested on: Pseudomonas fluorescens; assay: Alternate Minimum Inhibitory Concentrations Test (Table 4), Ps.fl; type: cell-based; conditions: Table 4 alternate test, 250 ppm to 0.8 ppm in TSB, 72 hours, 30° C.; for MIC: Pseudomonas fluorescens, read-out: MIC Ps.fl
Summary of the method: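 MIC taken as lowest concentration showing no growth after 72 h incubation at 30 °C in TSB. Twofold dilution series spanned 250 down to 0.8 ppm, wells inoculated with phosphate-buffer-diluted 24 h culture.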

[2] = tested on: Pseudoperonospora cubensis; assay: whole plant or invertebrate; type: in vivo; conditions: for pest or weed control at 50 ppm / pest or weed control at 200 ppm / pest or weed control at 12 ppm: Pseudoperonospora cubensis, in Cucumis sativus, 168 h, read-out: % Control CDM
[3] = tested on: Piricularia oryzae; assay: whole plant or invertebrate; type: in vivo; conditions: for pest or weed control at 100 ppm / pest or weed control at 200 ppm / pest or weed control at 25 ppm: Pyricularia oryzae
[4] = tested on: Pellicularia filamentosa (f. sp. sasiki); assay: whole plant or invertebrate; type: in vivo; conditions: for pest or weed control at 100 ppm / pest or weed control at 200 ppm: 120 h, read-out: % Control RSB
[5] = tested on: Phytophthora infestans; assay: whole plant or invertebrate; type: in vivo; conditions: for pest or weed control at 100 ppm / pest or weed control at 200 ppm: Phytophthora infestans, in Solanum lycopersicum, 96 h
[6] = tested on: Puccinia recondita (f. sp. tritici Races PKB and PLD); assay: whole plant or invertebrate; type: in vivo; conditions: for pest or weed control at 100 ppm / pest or weed control at 200 ppm / pest or weed control at 50 ppm: Puccinia recondita, 240 h, read-out: % Control WLR
[7] = tested on: Erysiphe graminis (f. sp. tritici); assay: whole plant or invertebrate; type: in vivo; conditions: for pest or weed control at 100 ppm / pest or weed control at 200 ppm / pest or weed control at 12 ppm: Blumeria graminis, read-out: % Control WPM
[8] = tested on: Puccinia graminis (f. sp. tritici Race 15B-2); assay: whole plant or invertebrate; type: in vivo
[9] = read-out: % Control RB, application rate 100 ppm
[10] = Puccinia graminis, 336 h, read-out: % Control WSR
[11] = read-out: % Control RB, application rate 200 ppm
[12] = read-out: % Control TLB, application rate 200 ppm
[13] = read-out: % Control TLB, application rate 100 ppm
[14] = read-out: % Control RB, application rate 25 ppm

CCCCCCCCNC(=O)/C=C\SC(=O)c1ccc([N+](=O)[O-])o1 [Compound 17, N-octyl-cis-3-[(5-nitro-2-furoyl)thio]acrylamide]
MIC [1]: > 250 µg/mL
pest or weed control at 50 ppm [2]: 50%
pest or weed control at 100 ppm [3, 9]: 80%
pest or weed control at 100 ppm [4]: 0%
pest or weed control at 100 ppm ([5]; read-out: % Control TLB): 90%
pest or weed control at 100 ppm [6]: 0%
pest or weed control at 100 ppm [7]: 0%
pest or weed control at 200 ppm [8, 10]: 95%

CCCCCCCCNC(=O)/C=C\SC(=O)CCCc1ccccc1 [Compound 80, N-octyl-cis-3-[(4-phenylbutanoyl)thio]acrylamide]
MIC [1]: > 250 µg/mL
pest or weed control at 50 ppm [2]: 85%
pest or weed control at 200 ppm [3, 11]: 50%
pest or weed control at 200 ppm [4]: 50%
pest or weed control at 200 ppm [5, 12]: 100%
pest or weed control at 200 ppm [6]: 0%
pest or weed control at 200 ppm [7]: 0%
pest or weed control at 200 ppm [8, 10]: 75%

CCCCCCCCNC(=O)/C=C\SC(=O)/C=C/c1ccc([N+](=O)[O-])cc1 [Compound 96, N-octyl-cis-3-[(trans-3-(4-nitrophenyl)propenoyl)thio]acrylamide]
MIC [1]: > 250 µg/mL
pest or weed control at 200 ppm [2]: 95%
pest or weed control at 200 ppm ([3]; read-out: % Control RB): 95%
pest or weed control at 200 ppm [4]: 50%
pest or weed control at 200 ppm [5, 12]: 0%
pest or weed control at 50 ppm [6]: 0%
pest or weed control at 200 ppm [7]: 75%
pest or weed control at 100 ppm [8, 10]: 0%

CCCCCCCCNC(=O)/C=C\SC(=O)c1cccnc1 [Compound 55, N-octyl-cis-3-[(3-pyridine)carbonylthio]acrylamide]
MIC [1]: > 250 µg/mL
pest or weed control at 12 ppm [2]: 70%
pest or weed control at 200 ppm [3, 11]: 0%
pest or weed control at 100 ppm [4]: 0%
pest or weed control at 100 ppm [5, 13]: 95%
pest or weed control at 100 ppm [6]: 0%
pest or weed control at 100 ppm [7]: 50%
pest or weed control at 200 ppm [8, 10]: 90%

CCCCCCCCNC(=O)/C=C\SC(=O)CCC(=O)OCC [Compound 52, N-octyl-cis-3-[(3-ethoxycarbonylpropanoyl)thio]acrylamide]
MIC [1]: > 250 µg/mL
pest or weed control at 50 ppm [2]: 70%
pest or weed control at 200 ppm [3, 11]: 0%
pest or weed control at 100 ppm [4]: 0%
pest or weed control at 100 ppm ([5]; read-out: % Control TLB): 80%
pest or weed control at 100 ppm [6]: 0%
pest or weed control at 100 ppm [7]: 0%
pest or weed control at 200 ppm [8, 10]: 90%

CCCCCCCCNC(=O)/C=C\SC(=O)c1ccco1 [Compound 15, N-octyl-cis-3-(2-furoylthio)acrylamide]
MIC [1]: > 250 µg/mL
pest or weed control at 50 ppm [2]: 50%
pest or weed control at 100 ppm ([3]; read-out: % Control RB): 100%
pest or weed control at 100 ppm [4]: 0%
pest or weed control at 100 ppm [5, 13]: 95%
pest or weed control at 100 ppm [6]: 95%
pest or weed control at 100 ppm [7]: 0%
pest or weed control at 200 ppm [8, 10]: 90%

CCCCCCCCNC(=O)/C=C\SC(=O)COC [Compound 87, N-octyl-cis-3-(methoxyacetylthio)acrylamide]
MIC [1]: > 250 µg/mL
pest or weed control at 200 ppm [2]: 100%
pest or weed control at 200 ppm ([3]; read-out: % Control RB): 95%
pest or weed control at 200 ppm [4]: 0%
pest or weed control at 200 ppm ([5]; read-out: % Control TLB): 90%
pest or weed control at 200 ppm [6]: 80%
pest or weed control at 12 ppm [7]: 50%
pest or weed control at 10 ppm [8, 10]: 50%

CCCCCCCCNC(=O)/C=C\SC(=O)C(C)(C)CCl [Compound 44, N-octyl-cis-3-[(2,2-dimethyl-3-chloropropanoyl)thio]acrylamide]
MIC [1]: > 250 µg/mL
pest or weed control at 200 ppm [2]: 0%
pest or weed control at 200 ppm [3, 11]: 0%
pest or weed control at 200 ppm [4]: 0%
pest or weed control at 200 ppm ([5]; read-out: % Control TLB): 90%
pest or weed control at 200 ppm [6]: 0%
pest or weed control at 200 ppm [7]: 0%
pest or weed control at 100 ppm [8, 10]: 0%

CCCCCCCCNC(=O)/C=C\SCc1ccc(C(F)(F)F)cc1 [Compound 33, N-octyl-cis-3-[(4-(trifluoromethyl)benzyl)thio]acrylamide]
MIC [1]: > 250 µg/mL
pest or weed control at 50 ppm [2]: 50%
pest or weed control at 25 ppm [3, 14]: 80%
pest or weed control at 100 ppm [4]: 0%
pest or weed control at 100 ppm ([5]; read-out: % Control TLB): 80%
pest or weed control at 100 ppm [6]: 0%
pest or weed control at 100 ppm [7]: 85%
pest or weed control at 200 ppm [8, 10]: 75%

CCCCCCCCNC(=O)/C=C\SC(=O)c1cccnc1Cl [Compound 6, N-octyl-cis-3-[3-(2-chloropyridine)carbonylthio]acrylamide]
MIC [1]: > 250 µg/mL
pest or weed control at 50 ppm [2]: 85%
pest or weed control at 100 ppm [3, 9]: 50%
pest or weed control at 100 ppm [4]: 0%
pest or weed control at 100 ppm ([5]; read-out: % Control TLB): 90%
pest or weed control at 100 ppm [6]: 0%
pest or weed control at 100 ppm [7]: 0%
pest or weed control at 200 ppm [8, 10]: 90%

CCCCCCCCNC(=O)/C=C\SC(=O)/C=C/C(=O)OCC [Compound 57, N-octyl-cis-3-[(trans-3-ethoxycarbonyl-2-propenoyl)thio]acrylamide]
MIC [1]: > 250 µg/mL
pest or weed control at 50 ppm [2]: 70%
pest or weed control at 200 ppm [3, 11]: 75%
pest or weed control at 200 ppm [4]: 0%
pest or weed control at 200 ppm ([5]; read-out: % Control TLB): 90%
pest or weed control at 200 ppm [6]: 25%
pest or weed control at 12 ppm [7]: 50%
pest or weed control at 200 ppm [8, 10]: 90%

CCCCCCCCNC(=O)/C=C\SC(=O)c1ccccc1Br [Compound 5, N-octyl-cis-3-[(2-bromobenzoyl)thio]acrylamide]
MIC [1]: > 250 µg/mL
pest or weed control at 50 ppm [2]: 50%
pest or weed control at 25 ppm [3, 14]: 80%
pest or weed control at 100 ppm [4]: 0%
pest or weed control at 100 ppm ([5]; read-out: % Control TLB): 90%
pest or weed control at 100 ppm [6]: 0%
pest or weed control at 100 ppm [7]: 0%
pest or weed control at 200 ppm [8, 10]: 75%

CCCCCCCCNC(=O)/C=C\SC(=O)C(C)(C)C [Compound 25, N-octyl-cis-3-[(1,1-dimethylpropanoyl)thio]acrylamide]
MIC [1]: > 250 µg/mL
pest or weed control at 50 ppm [2]: 85%
pest or weed control at 100 ppm [3, 9]: 0%
pest or weed control at 100 ppm [4]: 0%
pest or weed control at 100 ppm [5, 13]: 100%
pest or weed control at 100 ppm [6]: 0%
pest or weed control at 100 ppm [7]: 0%
pest or weed control at 100 ppm [8, 10]: 90%

CCCCCCCCNC(=O)/C=C\SC(=O)/C(=C/c1ccccc1)c1ccccc1 [Compound 82, N-octyl-cis-3-[(cis-2,3-diphenylpropenoyl)thio]acrylamide]
MIC [1]: > 250 µg/mL
pest or weed control at 200 ppm [2]: 0%
pest or weed control at 200 ppm [3, 11]: 90%
pest or weed control at 200 ppm [4]: 0%
pest or weed control at 200 ppm [5, 12]: 0%
pest or weed control at 50 ppm [6]: 50%
pest or weed control at 200 ppm [7]: 0%
pest or weed control at 100 ppm [8, 10]: 50%

CCCCCCCCNC(=O)/C=C\SC(=O)C1CCCCC1 [Compound 4, N-octyl-cis-3-(cyclohexanecarbonylthio)acrylamide]
MIC [1]: > 250 µg/mL
pest or weed control at 50 ppm [2]: 99%
pest or weed control at 100 ppm [3, 9]: 80%
pest or weed control at 100 ppm [4]: 0%
pest or weed control at 100 ppm ([5]; read-out: % Control TLB): 90%
pest or weed control at 100 ppm [6]: 0%
pest or weed control at 100 ppm [7]: 0%
pest or weed control at 200 ppm [8, 10]: 50%

CCCCCCCCNC(=O)/C=C\SC(=O)c1ccc(OC)cc1 [Compound 16, N-octyl-cis-3-[(4-methoxybenzoyl)thio]acrylamide]
MIC [1]: > 250 µg/mL
pest or weed control at 12 ppm [2]: 50%
pest or weed control at 25 ppm ([3]; read-out: % Control RB): 100%
pest or weed control at 100 ppm [4]: 0%
pest or weed control at 100 ppm ([5]; read-out: % Control TLB): 90%
pest or weed control at 100 ppm [6]: 75%
pest or weed control at 100 ppm [7]: 0%
pest or weed control at 100 ppm [8, 10]: 75%

N-octyl-cis-3-[(2-butenoyl)thio]acrylamide [Compound 20]
MIC Ps.fl [1]: > 250 Ppm
% Control CDM ([2]; in vivo): 85 % Control
% Control RB ([3]; in vivo): 50 % Control
% Control RSB ([4]; in vivo): 0 % Control
% Control TLB ([5]; application rate 6 ppm): 95 % Control
% Control WLR ([6]; in vivo): 0 % Control
% Control WPM ([7]; in vivo): 0 % Control
% Control WSR ([8]; application rate 200 ppm): 75 % Control

CCCCCCCCNC(=O)/C=C\SC(=O)/C=C/c1ccccc1 [Compound 14, N-octyl-cis-3-[(trans-3-phenylprop-2-enoyl)thio]acrylamide]
MIC [1]: > 250 µg/mL
pest or weed control at 50 ppm [2]: 50%
pest or weed control at 100 ppm ([3]; read-out: % Control RB): 100%
pest or weed control at 100 ppm [4]: 0%
pest or weed control at 100 ppm ([5]; read-out: % Control TLB): 90%
pest or weed control at 100 ppm [6]: 0%
pest or weed control at 100 ppm [7]: 0%
pest or weed control at 200 ppm [8, 10]: 75%

CCCCCCCCNC(=O)/C=C\SC(=O)CCCCl [Compound 29, N-octyl-cis-3-[(4-chlorobutanoyl)thio]acrylamide]
MIC [1]: > 250 µg/mL
pest or weed control at 50 ppm [2]: 85%
pest or weed control at 200 ppm [3, 11]: 75%
pest or weed control at 100 ppm [4]: 0%
pest or weed control at 100 ppm ([5]; read-out: % Control TLB): 90%
pest or weed control at 100 ppm [6]: 0%
pest or weed control at 100 ppm [7]: 0%
pest or weed control at 200 ppm [8, 10]: 75%

Source: patent US5300672A (priority 1992, dated 1994)
